Data published in patent publication US20240269301A1, “METHOD FOR INITIATING POLYMERIZATION OF AMINO ACID N-CARBOXYANHYDRIDES IN AQUEOUS PHASE” (PEKING UNIVERSITY, priority 2021, published 2024).
Counter-ions that a name gives are not always drawn.

Test: Solubility of doxorubicin in PBS (absorbance 495 nm)
Type: physicochemical
Details: FIG. 38
Method: Determination of doxorubicin content: 600, 300, 150, 75, 37.5, 18.75, 9.375, and 0 μg/mL DOX was formulated as a standard curve. 5 mg of doxorubicin hydrochloride was weighed and added to 1 mL of PBS. 10 mg of DOX-PLP was weighed and added to 100 μL of PBS. After dissolving by vortexing, the mixture was centrifuged at 21,000 for 10 min, and the supernatant was diluted to an appropriate multiple. The absorbance value was measured at 495 nm, and the DOX content was calculated based on the absorbance value of the standard curve.

- solubility limit: 573±22 μg/mL DOX
SMILES: COc1cccc2c1C(=O)c1c(O)c3c(c(O)c1C2=O)C[C@@](O)(C(=O)CO)C[C@@H]3O[C@H]1C[C@H](N)[C@H](O)[C@H](C)O1 [doxorubicin hydrochloride]
